This note sets out measurements from patent publication US9951025B2, “Halogenopyrazoles as inhibitors of thrombin” (VERSEON CORPORATION, priority 2013, dated 2018).

For the assay, the target named is T1, Human thrombin (Homo sapiens, UniProt P00734).
T1 construct: purchased Haematologic Technologies Inc
Briefly: thrombin protease inhibition assay, chromogenic substrate S-2238. Format: biochemical. The settings on record: 3 nM human thrombin, 125 μM S-2238, 10 min pre-incubation, RT. On the procedure:
Compounds described herein can be assayed, by a variety of methods known in the art and described herein, for inhibition of biological activity, e.g., protease activity, of a variety of proteins, e.g., thrombin.
The thrombin activity reported herein (e.g., Table A) was obtained as follows. […] Thrombin was assayed in buffer containing 0.05 M Tris (pH 7.4), 0.015 M NaCl and 0.01% PEG-8000. The final concentration of enzyme used was 3 nM thrombin. […] All assays were performed in 96-well microtiter plates at room temperature (RT). […] Inhibitor IC50 values were determined by adding test compound as ten point, three-fold serial dilutions in buffer solution, as known in the art. The plate was read at 10 minutes after substrate addition. The IC50 was calculated by plotting the percent (%) inhibition against compound concentration and fitting the data to a constrained four parameter sigmoidal curve, as known in the art.

`CN(C)c1cccc2c(S(=O)(=O)N3CCC(c4nn(C(=O)C(C)(C)CO)c(NCc5ccc(Cl)s5)c4F)CC3)cccc12` [Compound 1, 1-(5-[(5-chlorothiophen-2-yl)methyl]amino-3-(1-[5-(dimethylamino)naphthalen-1-yl]sulfonylpiperidin-4-yl)-4-fluoro-1H-pyrazol-1-yl)-3-hydroxy-2,2-dimethylpropan-1-one] yielded an IC50 of under 100 nM.
Molecule `CC(C)(C)C(=O)n1nc(-c2ccc3c(c2)CCCC3O)c(F)c1NCc1ccc(Cl)s1` (stereo not drawn) [Compound 2, 1-(5-[(5-chlorothiophen-2-yl)methyl]amino-4-fluoro-3-(5-hydroxy-5,6,7,8-tetrahydronaphthalen-2-yl)-1H-pyrazol-1-yl)-2,2-dimethylpropan-1-one] registered an IC50 of over 1000 nM.
The figure for `COCC(C)(C)C(=O)n1nc(C2CCOCC2)c(F)c1NCc1ccc(Cl)s1` [Compound 5, 1-(5-[(5-chlorothiophen-2-yl)methyl]amino-4-fluoro-3-(oxan-4-yl)-1H-pyrazol-1-yl)-3-methoxy-2,2-dimethylpropan-1-one] is under 100 nM.
As for `COC(C)(C)C(=O)n1nc(C2CCNCC2)c(F)c1NCc1ccc(Cl)s1` [Compound 7, 1-(5-[(5-chlorothiophen-2-yl)methyl]amino-4-fluoro-3-(piperidin-4-yl)-1H-pyrazol-1-yl)-2-methoxy-2-methylpropan-1-one], the figure is under 100 nM.
The figure for `COCC(C)(C)C(=O)n1nc(C2CCNCC2)c(F)c1NCc1ccc(Cl)s1` [Compound 9, 1-(5-[(5-chlorothiophen-2-yl)methyl]amino-4-fluoro-3-(piperidin-4-yl)-1H-pyrazol-1-yl)-3-methoxy-2,2-dimethylpropan-1-one] is under 100 nM.
Turning to `CC(C)(C)C(=O)n1nc(-c2ccccc2)c(F)c1NCc1ccc(Cl)s1` [Compound 10, 1-(5-[(5-chlorothiophen-2-yl)methyl]amino-4-fluoro-3-phenyl-1H-pyrazol-1-yl)-2,2-dimethylpropan-1-one], the IC50 is under 100 nM.
The figure for `CC(C)(O)C(=O)n1nc(-c2ccccc2)c(F)c1NCc1ccc(Cl)s1` [Compound 11, 1-(5-[(5-chlorothiophen-2-yl)methyl]amino-4-fluoro-3-phenyl-1H-pyrazol-1-yl)-2-hydroxy-2-methylpropan-1-one] is under 100 nM; for `COC(C)(C)C(=O)n1nc(-c2ccccc2)c(F)c1NCc1ccc(Cl)s1` [Compound 12, 1-(5-[(5-chlorothiophen-2-yl)methyl]amino-4-fluoro-3-phenyl-1H-pyrazol-1-yl)-2-methoxy-2-methylpropan-1-one] it is under 100 nM; for `COCCOCC(C)(C)C(=O)n1nc(-c2ccccc2)c(F)c1NCc1ccc(Cl)s1` [Compound 13, 1-(5-[(5-chlorothiophen-2-yl)methyl]amino-4-fluoro-3-phenyl-1H-pyrazol-1-yl)-3-(2-methoxyethoxy)-2,2-dimethylpropan-1-one] it is under 100 nM.
Take `CC(C)(CO)C(=O)n1nc(-c2ccccc2)c(F)c1NCc1ccc(Cl)s1` [Compound 14, 1-(5-[(5-chlorothiophen-2-yl)methyl]amino-4-fluoro-3-phenyl-1H-pyrazol-1-yl)-3-hydroxy-2,2-dimethylpropan-1-one]: the IC50 was under 100 nM.
The figure for `COCC(C)(C)C(=O)n1nc(-c2ccccc2)c(F)c1NCc1ccc(Cl)s1` [Compound 15, 1-(5-[(5-chlorothiophen-2-yl)methyl]amino-4-fluoro-3-phenyl-1H-pyrazol-1-yl)-3-methoxy-2,2-dimethylpropan-1-one] is under 100 nM.
In turn, `CC(C)(C)C(=O)n1nc(-c2ccc(N3CCCC3=O)cc2)c(F)c1NCc1ccc(Cl)s1` [Compound 16, 1-[4-(5-[(5-chlorothiophen-2-yl)methyl]amino-1-(2,2-dimethylpropanoyl)-4-fluoro-1H-pyrazol-3-yl)phenyl]pyrrolidin-2-one] showed an IC50 of under 100 nM.
As for `O=C1CCCN1c1ccc(-c2nn(C(=O)c3cccc4c3OCCO4)c(NCc3ccc(Cl)s3)c2F)cc1` [Compound 17, 1-[4-(5-[(5-chlorothiophen-2-yl)methyl]amino-1-(2,3-dihydro-1,4-benzodioxine-5-carbonyl)-4-fluoro-1H-pyrazol-3-yl)phenyl]pyrrolidin-2-one], the figure is under 100 nM; as for `COc1ccccc1C(=O)n1nc(-c2ccc(C(O)C(F)(F)F)cc2)c(F)c1NCc1ccc(Cl)s1` (stereo not drawn) [Compound 18, 1-[4-(5-[(5-chlorothiophen-2-yl)methyl]amino-4-fluoro-1-(2-methoxybenzoyl)-1H-pyrazol-3-yl)phenyl]-2,2,2-trifluoroethan-1-ol], over 1000 nM; as for `COc1ccccc1C(=O)n1nc(-c2ccc(N3CCCC3=O)cc2)c(F)c1NCc1ccc(Cl)s1` [Compound 19, 1-[4-(5-[(5-chlorothiophen-2-yl)methyl]amino-4-fluoro-1-(2-methoxybenzoyl)-1H-pyrazol-3-yl)phenyl]pyrrolidin-2-one], under 100 nM.
As for `O=C1CCCN1c1ccc(-c2nn(C(=O)c3ccoc3)c(NCc3ccc(Cl)s3)c2F)cc1` [Compound 20, 1-[4-(5-[(5-chlorothiophen-2-yl)methyl]amino-4-fluoro-1-(furan-3-carbonyl)-1H-pyrazol-3-yl)phenyl]pyrrolidin-2-one], the figure is over 1000 nM; as for `O=C(N1CCC(c2n[nH]c(NCc3ccc(Cl)s3)c2F)CC1)C1(O)CC1` [Compound 21, 1-[4-(5-[(5-chlorothiophen-2-yl)methyl]amino-4-fluoro-1H-pyrazol-3-yl)piperidine-1-carbonyl]cyclopropan-1-ol], 100 to 1000 nM.
As for `CC(C)(C)C(=O)n1nc(-c2ccccn2)c(F)c1NCc1ccccc1` [Compound 22, 1-[5-(benzylamino)-4-fluoro-3-(pyridin-2-yl)-1H-pyrazol-1-yl]-2,2-dimethylpropan-1-one], the figure is under 100 nM; as for `CC(C)(C)C(=O)n1nc(-c2ccccc2)c(F)c1NCc1ccccc1` [Compound 23, 1-[5-(benzylamino)-4-fluoro-3-phenyl-1H-pyrazol-1-yl]-2,2-dimethylpropan-1-one], under 100 nM.
The molecule `O=C(c1ccccc1)n1nc(C2CCOCC2)c(F)c1NCc1ccc(Cl)s1` [Compound 24, 1-benzoyl-N-[(5-chlorothiophen-2-yl)methyl]-4-fluoro-3-(oxan-4-yl)-1H-pyrazol-5-amine] returned an IC50 of under 100 nM.
As for `O=C(c1ccccc1)n1nc(NCc2ccc(Cl)s2)c(F)c1C1CCOCC1` [Compound 25, 1-benzoyl-N-[(5-chlorothiophen-2-yl)methyl]-4-fluoro-5-(oxan-4-yl)-1H-pyrazol-3-amine], the figure is over 1000 nM; as for `CN(C)c1cccc2c(S(=O)(=O)Oc3ccccc3C(=O)n3nc(-c4ccccc4)c(F)c3NCc3ccc(Cl)s3)cccc12` [Compound 26, 2-(5-[(5-chlorothiophen-2-yl)methyl]amino-4-fluoro-3-phenyl-1H-pyrazole-1-carbonyl)phenyl 5-(dimethylamino)naphthalene-1-sulfonate], 100 to 1000 nM.
As for `CN(C)c1cccc2c(S(=O)(=O)Oc3ccc(C(=O)n4nc(-c5ccccc5)c(F)c4NCc4ccc(Cl)s4)cc3)cccc12` [Compound 27, 4-(5-[(5-chlorothiophen-2-yl)methyl]amino-4-fluoro-3-phenyl-1H-pyrazole-1-carbonyl)phenyl 5-(dimethylamino)naphthalene-1-sulfonate], the figure is over 1000 nM; as for `CC(C)(C)C(=O)n1nc(-c2ccc(N3CCOCC3=O)cc2)c(F)c1NCc1ccc(Cl)s1` [Compound 28, 4-[4-(5-[(5-chlorothiophen-2-yl)methyl]amino-1-(2,2-dimethylpropanoyl)-4-fluoro-1H-pyrazol-3-yl)phenyl]morpholin-3-one], under 100 nM; as for `CC(C)(C)C(=O)n1nc(-c2ccc3c(c2)CCCC3=O)c(F)c1NCc1ccc(Cl)s1` [Compound 29, 6-(5-[(5-chlorothiophen-2-yl)methyl]amino-1-(2,2-dimethylpropanoyl)-4-fluoro-1H-pyrazol-3-yl)-1,2,3,4-tetrahydronaphthalen-1-one], under 100 nM.
As for `COc1ccccc1C(=O)n1nc(-c2ccc3c(c2)CCCC3O)c(F)c1NCc1ccc(Cl)s1` (stereo not drawn) [Compound 30, 6-(5-[(5-chlorothiophen-2-yl)methyl]amino-4-fluoro-1-(2-methoxybenzoyl)-1H-pyrazol-3-yl)-1,2,3,4-tetrahydronaphthalen-1-ol], the figure is over 1000 nM.
`COc1ccccc1C(=O)n1nc(-c2ccc3c(c2)CCCC3=O)c(F)c1NCc1ccc(Cl)s1` [Compound 31, 6-(5-[(5-chlorothiophen-2-yl)methyl]amino-4-fluoro-1-(2-methoxybenzoyl)-1H-pyrazol-3-yl)-1,2,3,4-tetrahydronaphthalen-1-one] came in with a half-maximal inhibitory concentration (IC50) of under 100 nM.
The figure for `O=C(c1cccc2c1OCCO2)n1nc(C2CCOCC2)c(F)c1NCc1ccc(Cl)s1` [Compound 32, N-[(5-chlorothiophen-2-yl)methyl]-1-(2,3-dihydro-1,4-benzodioxine-5-carbonyl)-4-fluoro-3-(oxan-4-yl)-1H-pyrazol-5-amine] is under 100 nM; for `O=C(c1cccc2c1OCCO2)n1nc(C2CCNCC2)c(F)c1NCc1ccc(Cl)s1` [Compound 33, N-[(5-chlorothiophen-2-yl)methyl]-1-(2,3-dihydro-1,4-benzodioxine-5-carbonyl)-4-fluoro-3-(piperidin-4-yl)-1H-pyrazol-5-amine] it is under 100 nM; for `O=C(c1cccc2c1OCCO2)n1nc(-c2ccccc2)c(F)c1NCc1ccc(Cl)s1` [Compound 34, N-[(5-chlorothiophen-2-yl)methyl]-1-(2,3-dihydro-1,4-benzodioxine-5-carbonyl)-4-fluoro-3-phenyl-1H-pyrazol-5-amine] it is under 100 nM.
